# Laboratory results reported in EP3222712A1, “ALCOHOL DEHYDROGENASE FROM PICHIA PASTORIS AND USE THEREOF” (priority 2016, dated 2017).
# Legend:
# [1] = test system: alcohol dehydrogenase from Pichia pastoris (PPADH); assay: biotransformation by purified PPADH with GDH co-factor regeneration, gas chromatography; type: biochemical; conditions: 2 hours reaction time
# [2] = molecular target: T1, alcohol dehydrogenase from Pichia pastoris (PPADH) (Komagataella phaffii, UniProt C4R4L0); assay: photometric assay, oxidation of alcohols by purified PPADH (NADP+, 340 nm); type: biochemical, Pichia pastoris GS 115; conditions: for specific activity: purified PPADH, 10 mM substrate, 0.2 mM NADP+, tris HCl pH 9, 25°C; for relative activity: 6.6 U/mg set to 100%
# T1 sequence (C4R4L0 entry or part of it): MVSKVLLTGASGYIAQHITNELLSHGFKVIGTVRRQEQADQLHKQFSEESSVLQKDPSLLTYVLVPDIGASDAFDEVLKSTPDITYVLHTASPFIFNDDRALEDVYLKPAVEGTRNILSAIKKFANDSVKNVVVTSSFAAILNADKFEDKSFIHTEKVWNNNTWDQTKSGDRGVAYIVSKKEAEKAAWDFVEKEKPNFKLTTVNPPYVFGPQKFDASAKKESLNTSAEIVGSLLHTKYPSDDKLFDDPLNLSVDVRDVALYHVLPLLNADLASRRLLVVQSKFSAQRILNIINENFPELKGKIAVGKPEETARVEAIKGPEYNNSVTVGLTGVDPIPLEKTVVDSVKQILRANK
# Experimental: (§1) In a first step, crude extract containing recombinant alcohol dehydrogenase from Pichia pastoris via cell disruption of E. coli BL21(DE3) overexpressing in vector pET28a-PPADH carrying an N-terminal 6xHis tag. Cells were resuspended in 10 mM tris HCl buffer (pH 7) to yield a 25% cell suspension and were disrupted by sonification under cooling. Three cycles of 2 min of 25% power output followed by 1 min cooling were used. After repeated centrifugation a cell-free crude extract was obtained. Afterwards the PPADH was purified as described in example 3c).
# (§2) Determination of the enzymatic activity of the purified PPADH can be determined via a oxidation or reduction reaction. For determination of the reduction the following compounds were used: tris HCl buffer (100 mM, pH 7), 0.2 mM NADPH, 10 mM substrate selected from the aldehydes and ketones as given in Table 2 and 10 µl enzyme (purified PPADH). For determination of the oxidation the following compounds were used: tris HCl buffer (100 mM, pH 9), 0.2 mM NADP^+, 10 mM substrate selected from the alcohols as given in Table 3 and 10 µl enzyme (purified PPADH). The reaction was performed in 1 cm-cuvettes. The compounds were mixed in the cuvette used for the experiment, which was placed in the photometer and data recording was started. The enzyme solution was added only immediately before the start of the measurement. The activity of the enzyme was determined by photometric detection of the concentration of NADPH after a certain time interval. Measurement was carried out at a temperature of 25°C, a wavelength of 340 nm and over a time interval of 1 min.
# [3] = molecular target: T1, alcohol dehydrogenase from Pichia pastoris (PPADH); assay: photometric assay, reduction of aldehydes and ketones by purified PPADH (NADPH, 340 nm); type: biochemical, Pichia pastoris GS 115; conditions: for relative activity: 38.6 U/mg with benzaldehyde set to 100%; for specific activity: purified PPADH, 10 mM substrate (sample 4: 20 mM), 0.2 mM NADPH, tris HCl pH 7, 25°C
# Experimental: as §1
# as §2, with “min. Table 2: enzymatic activity of PPADH regarding the reduction of different substrates determined by photometry” for “min.”
# [4] = acetophenone derivatives, related to the alcohol formed
# [5] = CF3-ketone derivatives, alcohol formed related to the reduction of (S)-ketone
smiles,measurement,setting,value
"O=C(c1ccccc1)C(F)(F)F [2,2,2-Trifluoroacetophenone]",level of turnover,[1]; acetophenone derivatives,+++ (+++=20-55%)
same,turnover,[1]; [4],24.2%
"CC(O)CO (stereo not drawn) [1,2-propanediol]",specific activity,[2],< 0.5 U/mg
CCCCCC[C@@H](C)O [(R)-(-)-2-octanol],specific activity,[2],< 0.5 U/mg
O=C(c1ccccc1)C(F)(F)F [compound 3],relative activity,[3],0.3%
same,specific activity,[3],0.10 U/mg
CC(=O)c1ccccc1Br [2'-bromoacetophenone],level of turnover,[1]; acetophenone derivatives,+ (+=1-5%)
same,turnover,[1]; [4],<5%
CCOC(=O)C(Cl)C(C)=O (stereo not drawn) [compound 11],relative activity,[3],14.7%
same,specific activity,[3],5.7 U/mg
"O=C(c1ccccc1Br)C(F)(F)F [2'-Bromo-2,2,2-trifluoroacetophenone]",level of turnover,[1]; acetophenone derivatives,+ (+=1-5%)
same,turnover,[1]; [4],<5%
CCCCCCC(C)=O [2-octanone],specific activity,[3],< 0.5 U/mg
CCOC(=O)CC(=O)CCl [compound 12],relative activity,[3],98.3%
same,specific activity,[3],38.0 U/mg
"CC(O)C(C)O (stereo not drawn) [2,3-butanediol]",specific activity,[2],< 0.5 U/mg
"CC1(C)COC(=O)C1=O [dihydro-4,4-dimethyl-2,3-furandion]",specific activity,[3],< 0.5 U/mg
OCc1ccccc1 [benzylalcohol],specific activity,[2],< 0.5 U/mg
CCCC(C)O (stereo not drawn) [compound 19],relative activity,[2],38.3%
same,specific activity,[2],2.53 U/mg
C[C@@H](CO)c1ccccc1 [compound 15],relative activity,[2],16.0%
same,specific activity,[2],1.06 U/mg
COc1ccc(C(O)(CC(C)=O)C(F)(F)F)cc1 (stereo not drawn) [Nod365 F6],level of turnover,[1]; CF3-ketone derivatives,+++++ (+++++ = 75 - 100 %)
same,turnover,[1]; CF3-ketone derivatives,quant.
O=C1C=CCCC1 [cyclohexen-1-on],specific activity,[3],< 0.5 U/mg
CCCC[C@H](C)O [compound 23],relative activity,[2],100.0%
same,specific activity,[2],6.61 U/mg
COc1ccccc1C(C)=O [2'-Methoxyacetophenone],level of turnover,[1]; acetophenone derivatives,+ (+=1-5%)
same,turnover,[1]; [4],<5%
CC[C@H](N)CO [(S)-(+)-2-amino-1-butanol],specific activity,[2],< 0.5 U/mg
CC(=O)c1ccccc1 [compound 2],relative activity,[3],0.2%
same,specific activity,[3],0.06 U/mg
C=C(C)[C@@H]1CC=C(C)C(=O)C1 [(-)-carvone],specific activity,[3],< 0.5 U/mg
OC1C=CCCC1 (stereo not drawn) [2-cyclohexen-1-ol],specific activity,[2],< 0.5 U/mg
CCCC(C)C=O (stereo not drawn) [compound 6],relative activity,[3],248.9%
same,specific activity,[3],96.1 U/mg
COCC(=O)c1ccccc1 [2-Methoxyacetophenone],level of turnover,[1]; acetophenone derivatives,- (-=0-1%)
same,turnover,[1]; [4],<1%
CC(C)=O [acetone],specific activity,[3],< 0.5 U/mg
C[C@@H](O)c1ccccc1 [(R)-(+)-1-phenylethanol],specific activity,[2],< 0.5 U/mg
CC(C)=CCC/C(C)=C/C=O [compound 9],relative activity,[3],46.1%
same,specific activity,[3],17.8 U/mg
"CCC(O)CO (stereo not drawn) [1,2-butanediol]",specific activity,[2],< 0.5 U/mg
C/C=C/C(C)O (stereo not drawn) [compound 20],relative activity,[2],19.5%
same,specific activity,[2],1.29 U/mg
CCCCCC=O [compound 7],relative activity,[3],73.9%
same,specific activity,[3],28.5 U/mg
CC(=O)CC(O)(c1ccc(F)cc1)C(F)(F)F (stereo not drawn) [Nod363 F4],level of turnover,[1]; CF3-ketone derivatives,+++++ (+++++ = 75 - 100 %)
same,turnover,[1]; CF3-ketone derivatives,quant.
CC(C)=CCCC(C)CC=O (stereo not drawn) [compound 10],relative activity,[3],71.9%
same,specific activity,[3],27.8 U/mg
COC(C)(C)CC(C)=O [4-methoxy-4-metyhl-2-pentanone],specific activity,[3],< 0.5 U/mg
C=CC(O)CCCCC (stereo not drawn) [octen-3-ol],specific activity,[2],< 0.5 U/mg
CCC(=O)C(O)CC (stereo not drawn) [4-hydoxy-3-hexanone],specific activity,[3],< 0.5 U/mg
OCCc1ccccc1Br [compound 16],relative activity,[2],29.3%
same,specific activity,[2],1.94 U/mg
CC12CCC(C1)C(C)(C)C2=O (stereo not drawn) [fenchon],specific activity,[3],< 0.5 U/mg
CC(C)=C1CC[C@@H](C)CC1=O [(+)-pulegon],specific activity,[3],< 0.5 U/mg
CCCCO [compound 17],relative activity,[2],16.7%
same,specific activity,[2],1.11 U/mg
CC[C@H](C)O [(S)-(+)-2-butanol],specific activity,[2],< 0.5 U/mg
CC(=O)CC(C)=O [compound 14],relative activity,[3],8.5%
same,specific activity,[3],3.3 U/mg
CC(=O)CC(O)(c1ccc(Cl)cc1)C(F)(F)F (racemic) [Nod362],level of turnover,[1]; CF3-ketone derivatives,+++++ (+++++ = 75 - 100 %)
same,turnover,[1]; CF3-ketone derivatives,quant.
OC1CCCCC1 [cyclohexanol],specific activity,[2],< 0.5 U/mg
CCCCC(C)O (stereo not drawn) [compound 22],relative activity,[2],54.9%
same,specific activity,[2],3.62 U/mg
CCCC=O [compound 5],relative activity,[3],176.2%
same,specific activity,[3],68.0 U/mg
CC(=O)CCc1ccccc1 [benzylacetone],specific activity,[3],< 0.5 U/mg
CCCCCCCC(C)=O [2-nonanone],specific activity,[3],< 0.5 U/mg
COc1ccccc1[C@@](O)(CC(C)=O)C(F)(F)F [Nod-3d],level of turnover,[1]; CF3-ketone derivatives,+++++ (+++++ = 75 - 100 %)
same,turnover,[1]; [5],75.8%
CCCCC(C)=O [2-hexanone],specific activity,[3],< 0.5 U/mg
CCCCC[C@H](C)O [compound 25],relative activity,[2],31.6%
same,specific activity,[2],2.09 U/mg
"O=C(c1ccc(Cl)cc1)C(F)(F)F [4'-Chloro-2,2,2-trifluoro acetophenone]",level of turnover,[1]; acetophenone derivatives,++ (++=5-20%)
same,turnover,[1]; [4],12.4%
CCCC(C)CO (stereo not drawn) [compound 18],relative activity,[2],30.9%
same,specific activity,[2],2.04 U/mg
CC(=O)CC(O)(c1ccc(C)cc1)C(F)(F)F (stereo not drawn) [Nod364 F3-Enon],level of turnover,[1]; CF3-ketone derivatives,+++++ (+++++ = 75 - 100 %)
same,turnover,[1]; CF3-ketone derivatives,quant.
COC(C)(CC(C)=O)c1ccccc1 (racemic) [NOD-VI-405],level of turnover,[1]; CF3-ketone derivatives,+++ (+++ =20-55 %)
same,turnover,[1]; [5],20.3%
CC(CO)c1ccccc1 (stereo not drawn) [2-phenyl-1-propanol],specific activity,[2],< 0.5 U/mg
CC(=O)c1ccccc1 [acetophenone],level of turnover,[1]; acetophenone derivatives,++ (++=5-20%)
same,turnover,[1]; [4],7.8%
O=C(CO)c1ccccc1 [2-Hydroxyacetophenone],level of turnover,[1]; acetophenone derivatives,+ (+=1-5%)
same,turnover,[1]; [4],<5%
CCCC(=O)CC(=O)OCC [compound 13],relative activity,[3],1.3%
same,specific activity,[3],0.5 U/mg
CCCCCCC(C)O (stereo not drawn) [compound 26],relative activity,[2],8.7%
same,specific activity,[2],0.57 U/mg
CC(C)=CCCC(C)=CCO [compound 28],relative activity,[2],18.0%
same,specific activity,[2],1.19 U/mg
"CC1CC(=O)CC(C)(C)C1 (stereo not drawn) [3,3,5-trimethylcyclohexanone]",specific activity,[3],< 0.5 U/mg
CC(C)=CCCC(C)=CCO [compound 27],relative activity,[2],32.7%
same,specific activity,[2],2.16 U/mg
CCC/C=C/C=O [compound 8],relative activity,[3],97.2%
same,specific activity,[3],37.5 U/mg
C=CCC[C@H](C)O [compound 24],relative activity,[2],57.4%
same,specific activity,[2],3.79 U/mg
CCOC(C)=O [ethylacetate],specific activity,[3],< 0.5 U/mg
CC(=O)CC(O)(c1ccccc1)C(F)(F)F (racemic) [compound 4],relative activity,[3],97.2%
same,specific activity,[3],37.5 U/mg
CC(=O)CC(C)C [4-methyl-2-pentanone],specific activity,[3],< 0.5 U/mg
CCC(=O)c1ccccc1 [propiophenone],specific activity,[3],< 0.5 U/mg
"O=Cc1ccccc1 [compound 1, benzaldehyde]",relative activity,[3],100.0%
same,specific activity,[3],38.6 U/mg
CC(O)c1ccc(Cl)cc1 (stereo not drawn) [1-(4-chlorophenyl)ethanol],specific activity,[2],< 0.5 U/mg
C=CCC[C@@H](C)O [(R)-(-)-5-hexen-2-ol],specific activity,[2],< 0.5 U/mg
CC(C)[C@@H]1CC[C@@H](C)CC1=O [(-)-menthone],specific activity,[3],< 0.5 U/mg
C=CC(O)CC (stereo not drawn) [1-penten-3-ol],specific activity,[2],< 0.5 U/mg
